Data from patent US20080113016A1, “Method for Prevention or Treatment of Inflammatory Disease” (priority 2004, published 2008).
Entries after “also recorded” stand apart in the source; their conditions may differ. Where two headings read alike, the source gives them in different places. Marks after values point to notes of the source that are not given here.

Key:
[1] = tested on: rats with adjuvant arthritis; experiment: Adjuvant arthritis: histologic joint damage, semiquantitative score; assay type: in vivo, rat
Experimental: Rats were immunized with CFA on day 0 and treated daily with intrathecal SB203580 (8 μg) or intrathecal saline beginning on day 8-20. Left panel is vehicle and right panel is SB203580. […] Representative sections are shown illustrating decreased erosions, cartilage damage and synovial inflammation in the treated group.
Adjuvant arthritis. Male Lewis rats (150-200 g) were immunized at the base of the tail with 0.1 ml of complete Freund's adjuvant (CFA) on day 0. Drug (IT or subcutaneous SB203580 or IT vehicle) treatment started on day 8 and continued on a daily basis until day 20. Clinical signs of arthritis generally begin on day 10, and paw swelling was determined every second day by water displacement plethysmometry. […] Prior to daily drug delivery, rats were individually assessed for ability to walk and bear weight on their hind paws. On the day of sacrifice, a probe with a 24 gm bending force was applied to the lateral ankle of each hind paw for 4 s. Animals were graded (0/1) on whether they vocalized. […]

[2] = tested on: synovial IL-1, IL-6 and MMP3 gene expression; experiment: Adjuvant arthritis: joint gene expression by quantitative real time PCR; assay type: in vivo, rat; conditions: intrathecal 8 μg daily day 8-20 vs IT saline, hind paws
Experimental: Rats were immunized with CFA on day 0 and treated daily with intrathecal SB203580 (8 μg) or intrathecal saline beginning on day 8-20. (A) Quantitative real time PCR was performed on the hind paws. Normal rat joints are also shown as a control.
Q-PCR. Ankle joints were excised and trimmed of skin. The tissue was then pulverized and RNA extracted using RNA-STAT-60 and standard techniques. The RNA was reversed transcribed into cDNA using random hexamer primers. TaqMan PCR amplification reactions were carried out in reaction volumes of 25 μl in MicroAmp Optical Plates and MicroAmp Optical Caps using the TaqMan Universal Master Mix with a Perkin Elmer 5700 thermal cycler. Each sample was analyzed in triplicate using 50 ng of cDNA in the reaction. Thermal cycling was initiated with a 2 min incubation at 50° C., followed by 10 min at 95° C. to activate the AmpliTaq polymerase and then 40 cycles of 95° C. for 15 s/60° C. for 1 min. GADPH was used as a loading control for in each sample. The standard curve method was used for quantification as previously described. Boyle, et al. Arthritis Res. Ther. 5:R352-360, 2003.

[3] = tested on: rats with adjuvant arthritis; experiment: Adjuvant arthritis: behavioral pain (vocalization to 24 gm ankle pressure); assay type: in vivo, rat; conditions: 24 gm bending force to lateral ankle for 4 s on day 20
Excerpt: The effect of IT SB203580 on the clinical manifestations of adjuvant arthritis was examined. […] Paw swelling was inversely correlated with behavioral analysis as determined by weight bearing in hind limbs.
(§1) Intrathecal (IT) catherization of rats. All animals were handled in accordance with USDA guidelines, and all procedures have been carefully reviewed and approved by the institutional animal subjects committee. Rats (200-300 g) were housed for at least one week before use. Isoflurane anesthesia was used for all surgical procedures. Animals were implanted with an intrathecal (IT) catheter modified from the method previously described. Yaksh, et al. Physiol. Behav. 17:1031-6, 1976. After a six day recovery period, all animals except those that appeared to have sensory or motor abnormalities (less than 5% of the total number) were used for experiments. For IT administration, 10 μl of drug or vehicle followed by 10 μl of isotonic saline was injected through the catheter.
Adjuvant arthritis. Male Lewis rats (150-200 g) were immunized at the base of the tail with 0.1 ml of complete Freund's adjuvant (CFA) on day 0. […] Clinical signs of arthritis generally begin on day 10, and paw swelling was determined every second day by water displacement plethysmometry. […] Prior to daily drug delivery, rats were individually assessed for ability to walk and bear weight on their hind paws. […]

[4] = tested on: rats with adjuvant arthritis; experiment: Adjuvant arthritis: radiographic joint damage, semiquantitative score; assay type: in vivo, rat
Experimental: (§2) Adjuvant arthritis. Male Lewis rats (150-200 g) were immunized at the base of the tail with 0.1 ml of complete Freund's adjuvant (CFA) on day 0. […] Clinical signs of arthritis generally begin on day 10, and paw swelling was determined every second day by water displacement plethysmometry. […] Prior to daily drug delivery, rats were individually assessed for ability to walk and bear weight on their hind paws. On the day of sacrifice, a probe with a 24 gm bending force was applied to the lateral ankle of each hind paw for 4 s. Animals were graded (0/1) on whether they vocalized. Roentgenograms were obtained of the hind paws to assess bone changes using a semi-quantitative scoring system (demineralization (0 to 2+), ankle and mid-foot erosions (0 to 2+), calcaneal erosion (0 to 1+), heterotopic bone formation (0 to 1+) (maximum possible score=6). Paws were fixed in formalin and decalcified for 2-3 days. Sections from paraffin embedded tissue were stained with hematoxylin and eosin. A synovial inflammation score was determined using a semi-quantitative scale that measures synovial inflammation (0-2+), cartilage integrity (0-2+), bone erosions (0-2+), marrow infiltration (0-2+), proteoglycans loss (0-2+ in safranin 0 stained sections) and extra-articular inflammation (0-2+) (maximum score 12). Subjective assessments were made by an investigator blinded to the drug treatment.

[5] = tested on: rats with adjuvant arthritis; experiment: Adjuvant arthritis: paw swelling by water displacement plethysmometry; assay type: in vivo, rat
Experimental: […] Paw swelling was measured by water displacement plethysmometry.
as §1, §2

[6] = tested on: spinal nerve ligation; conditions: administered intrathecally before spinal nerve ligation, cited from earlier work
[7] = intrathecal etanercept 100 or 300 μg q.o.d.

Row | Compound | Histologic joint damage and inflammation (semiquantitative score) ([1]; intrathecal 8 μg daily day 8-20 vs IT saline) | Leukocyte infiltration into synovium ([1]; intrathecal catheter administration) | Synovial IL-1 gene expression [2] | Synovial IL-6 gene expression [2] | MMP3 gene expression ([2]; p<0.05) | Positive vocalization (animals that vocalize / total number) ([3]; intrathecal (IT) SB203580 8 μg daily day 8-20) | Positive vocalization (animals that vocalize / total number) ([3]; subcutaneous (SC) SB203580 8 μg daily day 8-20) | Radiographic joint damage (bone erosions, cartilage loss, demineralization) ([4]; intrathecal 8 μg daily day 8-20, p<0.05) | Radiographic joint damage ([4]; systemic (subcutaneous) treatment, same dose 8 μg) | Paw swelling ([5]; intrathecal 8 μg daily day 8-20, compared with IT saline or same dose subcutaneously) | Effect in adjuvant arthritis (paw swelling, synovial infiltration, joint destruction) ([5]; same dose (8 μg) delivered systemically (subcutaneous)) | Allodynia [6] | Increase in spinal cord P-p38 / p38 activation [6] | Increase in spinal cord P-p38 / p38 activation ([6]; listed as etanercept) | Radiographic evidence of joint destruction [4, 7] | Paw swelling [5, 7] | Paw swelling ([5]; subcutaneous 50 μg every other day from day 1, day 20) [mL] | Paw swelling ([5]; subcutaneous 100 μg every other day from day 1, day 20) [mL] | Paw swelling ([5]; subcutaneous 300 μg every other day from day 1, day 20) [mL] | Paw swelling on day 20 ([5]; systemic treatment with the same doses as intrathecal)
1 | C[S+]([O-])c1ccc(-c2nc(-c3ccncc3)c(-c3ccc(F)cc3)[nH]2)cc1 (centres unmarked) [SB203580] | significantly decreased | decreased | significantly decreased | significantly decreased | significantly decreased | 0/6** | 4/6 | significantly decreased | no effect | significantly decreased; also recorded: markedly suppressed | no effect | – | – | – | – | – | – | – | – | –
2 | Etanercept | – | – | – | – | – | – | – | – | – | – | – | inhibits | blocks | inhibits | significantly decreased | significantly decreased | 1.51 ± 0.20 | 1.75 ± 0.18 | 1.67 ± 0.16 | no effect
